# Source: patent EP0398427A1, “Antirhinoviral pyridazinamines” (priority 1989, dated 1990)
# Legend:
# [1] = tested on: Human Rhinovirus serotypes HRV- 2,-29,-39,-85,-9,-15,-51,-59,-63,-89 and -41; test: Picornavirus Minimal Inhibitory Concentration test (cytopathic effect reduction assay), first panel of rhinoviruses; format: cell-based; conditions: Human rhinovirus sp., HeLa, read-out: Med₁
# Protocol: (§1) The Minimal Inhibitory Concentration of the compounds of the present invention against the Human Rhinovirus strains (HRV) -2,-9,-14,-15,-29,-39,-41,-42,-45,-51 -59,-63,-70,-72-,-85,-86 and -89 was determined by a standard cytophatic effect reduction assay as follows. To each of the ninty six (96) wells of a microtiter 96 well tissue culture plate there was added 60 µl of a Ohio Hela cell maintenance medium [Eagle's Basal medium supplemented with 5% Foetal Calf Serum (FCS)]. To two wells there was added 60 µl of an appropriate starting dilution of a compound of formula (I) and two-fold dilutions were made to cover a wide range of compound concentrations. Subsequently there were added 120 µl of an infectious solution of virus in Eagle's Basal Medium with 2% Hepes buffer, 2% FCS and 30 mM MgCl₂ to all wells except cell and compound controls. Said infectious virus solution having a TCID₅₀-value (Tissue Culture Infectious Dose) of about 100.
# (§2) The TCID₅₀-value is the dose of viruses which initiates a cytopathic effect in 50% of the inoculated cells. 150 µl of the thus obtained virus-compound mixtures were then transferred to microtitre plates with subconfluent Ohio Hela Cells, grown in 100 µl of maintenance medium. Appropriate virus controls, cell controls and compound controls were included in each test. Plates were incubated for 3 to 5 days at 33°C in 5% CO₂ atmosphere. […] The IC₅₀-value for each virus-compound series was taken as the concentration in ng/ml that protected 50% of the cells from cytopathic effects with respect to the untreated controls. In the standard test procedure, the compounds were tested against a first panel of rhinoviruses consisting of serotypes HRV- 2,-29,-39,-85,-9,-15,-51,-59,-63,-89 and -41 and the other panel consisting of HRV-42,-45,-14,-70,-72 and -86.
# (§3) The IC₅₀-value for each rhinovirus serotype was determined, and the efficacy of each compound was determined in terms of the Med₁-value and Med₂-value, which is the medium value of the IC₅₀-values of all serotypes from the first and second panel respectively.
# [2] = tested on: HRV-42,-45,-14,-70,-72 and -86; test: Picornavirus Minimal Inhibitory Concentration test (cytopathic effect reduction assay), second panel of rhinoviruses; format: cell-based; conditions: Human rhinovirus sp., HRV42, HeLa, read-out: Med₂
# Protocol: as §1, §2, §3
SMILES,IC50 [1] [µg/mL],IC50 [2] [µg/mL]
"CCOC(=O)c1ccc2nc(CC3CCN(c4ccc(Cl)nn4)CC3)sc2c1 [Compound 2, ethyl 2-[[1-(6-chloro-3-pyridazinyl)-4-piperidinyl]methyl]-6-benzothiazolecarboxylate]",0.031,0.067
"CCOC(=O)c1ccc2oc(CCC3CCN(c4ccc(Cl)nn4)CC3)nc2c1 [Compound 4, ethyl 2-[2-[1-(6-chloro-3-pyridazinyl)-4-piperidinyl]ethyl]-5-benzoxazolecarboxylate]",0.088,0.039
"CCOC(=O)c1ccc(OCCC2CCN(c3ccc(C)nn3)CC2)s1 [Compound 7, ethyl 5-[2-[1-(6-methyl-3-pyridazinyl)-4-piperidinyl]ethoxy]-2-thiophenecarboxylate]",0.007,0.185
